Assay results taken from patent US9394263B2, “Substituted hetero-azepinones” (priority 2012, dated 2016).

What was measured:
BIR3 domain of XIAP = BIR3 domain of XIAP (Homo sapiens (Human), UniProt P98170); test: TR-FRET assay for BIR3: inhibition of binding of XIAP BIR3 domain to Peptide A (SMAC-derived peptide); conditions: read-out: BIR3 IC50
BIR2 domain of XIAP = BIR2 domain of XIAP (Homo sapiens (Human), UniProt P98170, C202A/C213G); test: TR-FRET assay for BIR2: inhibition of binding of XIAP BIR2 domain to Peptide A (SMAC-derived peptide); conditions: read-out: BIR2 IC50;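 further: percent inhibition measured across a concentration series of each compound, from which the IC50 was derived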
BIR2 domain of XIAP, sequence (P98170 other isoform, or with tags, fused parts or gaps, stated change not applied): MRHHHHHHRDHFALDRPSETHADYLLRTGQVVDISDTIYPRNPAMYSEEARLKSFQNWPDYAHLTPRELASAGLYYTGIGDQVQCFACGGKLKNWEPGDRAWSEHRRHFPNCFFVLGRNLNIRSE
Description: TR-FRET Assay for BIR2 and BIR3
The peptides were labeled with the fluorescent tags FITC or TAMRA and Kd values were determined by fluorescence polarization assay.
The peptide sequence was derivatized with biotin to provide [sequence]-(8-biotin)-OH 1:2 TFA as the substrate for the TR-FRET assay.
The XIAP protein sequence was obtained from the SWISS-PROT protein sequence database and the BIR2 and BIR3 domains were derived from that.
Percentage of inhibition at each concentration was determined to generate an IC50 value for each test compound.

BIR3 domain of XIAP, sequence (P98170 241-356 with tags or gaps limits assumed): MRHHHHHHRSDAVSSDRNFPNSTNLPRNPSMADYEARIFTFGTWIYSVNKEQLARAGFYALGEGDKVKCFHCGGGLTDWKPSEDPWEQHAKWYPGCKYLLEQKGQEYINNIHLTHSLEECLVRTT

CCN[C@@H](C)C(=O)N[C@@H]1C(=O)N(Cc2c(C#N)n(-c3ccccc3C#N)c3ccccc23)c2ccccc2O[C@H]1C [Example 77, (S)-N-((2S,3S)-5-((2-Cyano-1-(2-cyanophenyl)-1H-indol-3-yl)methyl)-2-methyl-4-oxo-2,3,4,5-tetrahydrobenzo[b][1,4]oxazepin-3-yl)-2-(ethylamino)propanamide]
IC50 (BIR3 domain of XIAP): > 54800 nM | IC50 (BIR2 domain of XIAP): 107 nM
